# In PMC8333425, “Discovery of a dual Ras and ARF6 inhibitor from a GPCR endocytosis screen” (Nature Communications, 2021):
# “And” between values parts separate entries of the source, which are not always exact repeats. Identical values can stand only once.
# How the values were obtained:
# [1] = tested on: Gαi3; assay: Gαi3 BRET sensor, AT1R-mediated; type: cell-based, human
# Method: HEK293SL cells were seeded at a density of 7.5 × 10^5 cells per 100-mm dish and 24 h later, transiently transfected as such. For receptor internalization experiments, cells were transfected with 0.12 μg AT1R-RlucII, B2R-RlucII, or β2AR-RlucII and 0.48 μg of either rGFP-CAAX (to assess removal from the PM) or rGFP-FYVE (to assess accumulation in the endosomes). For β-arrestin recruitment assays, cells were transfected with 0.48 μg of receptor-YFP along with 0.12 μg of β-arrestin-RlucII. For β-arrestin/AP-2 binding experiments, cells were transfected with 1 μg Flag-AT1R, 1 μg β2-Adaptin-YFP, and 0.12 μg β-arrestin2-RlucII. […] For kinetics of β-arrestin recruitment or β-arrestin binding to receptor and AP-2 experiments, cells were serum starved for 30 min, pretreated with 21 (50 µM) or Barbadin (100 µM) for 30 min, stimulated with 100 nM AngII or 1 µM BK and BRET signals were monitored at indicated times using a Victor X Light plate reader (PerkinElmer). […] The BRET ratio was determined by calculating the ratio of the light emitted by YFP over the light emitted by the RlucII. […] For the kinetics of GTPase and PI3K/Akt activation, cells were serum starved, pretreated with 21 (50 µM) or Wortmannin (200 nM) for 30 min, stimulated with ligand (100 nM AngII or 100 ng/ml EGF) and BRET signals were monitored at indicated times. […]
# [2] = tested on: ERK1/2 activation by EGFR; assay: Western blot of EGFR-mediated ERK1/2 phosphorylation; type: cell-based, human; conditions: for p-ERK1/2 over ERK1/2, normalized to basal (0 min), EGFR: Comp 21 50 μM; for p-ERK1/2 over ERK1/2, normalized to basal (0 min), EGFR / ERK 1/2 activation, EGFR (p-ERK1/2 over ERK1/2, fold over basal): individual experiments
# Method: HEK293SL cells (10^5 cells per well) were seeded in a poly-L-lysine-coated six-well plate and transiently transfected with 3 μg Flag-AT1R, HA-B2R or HA-β2AR and/or 500 ng Flag-MEK1-WT, Flag-MEK1-DD, Flag-BRAF-WT, Flag-BRAF-V600E, Flag-K-Ras-WT, Flag-K-Ras-G12V, HA-ARF6-WT, or HA-ARF6-T27N. Gαq/11 KO and βarr1/2 KO cells were seeded onto 100 mm dishes at a density of 10^6 cells per dish. Next day, cells were transfected with 3 μg AT1R alone or along with 500 ng of β-arrestin2 using PEI. After 18 h of transfection, cells were detached and re-seeded onto poly-L-lysine coated 12-well plates (~1.5–2 × 10^5cells/well) for subsequent experiments. Forty-eight hours post transfection, in a 37 °C water bath, cells were serum-starved for 30 min, pretreated with DMSO (0.1%) or compound 21/Rasarfin (50 µM or at indicated concentrations) for 30 min, then stimulated or not with the indicated ligand [AngII (1 µM), BK (1 µM), Iso (10 µM) or EGF (100 ng/ml)] at indicated times. Cells were put on ice, washed with PBS and solubilized in 2x laemmli buffer (250 mM Tris–HCl pH 6.8, 2% SDS (w/v), 10% glycerol (v/v), 0.01% bromophenol blue (w/v) and 5% β-mercaptoethanol (v/v)) by heating at 65 °C for 15 min. Lysates were resolved on 10 or 14% SDS-PAGE, transferred to nitrocellulose membranes and immunoblotted for p-ERK1/2, ERK1/2, p-Akt, Akt, HA, Myc, β-actin or FLAG. ImageLab 5.2 software was used to quantify the digital blots as fold of the phosphorylated protein over total protein, which were then normalized as indicated in the figure legends. Uncropped immunoblots are provided in the Source Data file.
smiles,measurement,setting,value
CC(C)C(=O)N1CCN(c2ccc(NC(=O)c3cc4ccccc4o3)cc2Cl)CC1 [Compound 21],Gαi3 engagement by AT1R (BRET sensor),[1]; 50 μM,lack of inhibitory effects
same,"Gi3 BRET sensor signal (S_Fig.4b), single experiments",[1]; listed as Comp 21,0.11 and 0.122
same,MAPK response promoted by EGFR,[2]; 50 μM,blocked MAPK responses
same,"p-ERK1/2 over ERK1/2, normalized to basal (0 min), EGFR",[2]; time 0 min,1
same,"p-ERK1/2 over ERK1/2, normalized to basal (0 min), EGFR",[2]; time 2 min,0.3674 and 5.171 and 13.8891 and 0.7219
same,"p-ERK1/2 over ERK1/2, normalized to basal (0 min), EGFR",[2]; time 5 min,0.3034 and 7.285 and 51.2032 and 0.6227
same,IC50,"[2]; Homo sapiens, read-out: IC50 for inhibition of ERK1/2 activation by EGFR",4 µM
same,"ERK 1/2 activation, EGFR (p-ERK1/2 over ERK1/2, fold over basal)",[2]; Log [Comp 21] (M) -4.3,3.411 percent compared to DMSO and 1.173 percent compared to DMSO
same,"ERK 1/2 activation, EGFR (p-ERK1/2 over ERK1/2, fold over basal)",[2]; Log [Comp 21] (M) -5,5.269 percent compared to DMSO and 7.4638 percent compared to DMSO and 1.3341 percent compared to DMSO
same,"ERK 1/2 activation, EGFR (p-ERK1/2 over ERK1/2, fold over basal)",[2]; Log [Comp 21] (M) -5.3,22.8883 percent compared to DMSO and 78.7892 percent compared to DMSO and 45.9513 percent compared to DMSO
same,"ERK 1/2 activation, EGFR (p-ERK1/2 over ERK1/2, fold over basal)",[2]; Log [Comp 21] (M) -6,104.782 percent compared to DMSO and 74.7611 percent compared to DMSO
same,"ERK 1/2 activation, EGFR (p-ERK1/2 over ERK1/2, fold over basal)",[2]; Log [Comp 21] (M) -6.3,80.4826 percent compared to DMSO and 84.8524 percent compared to DMSO
same,"ERK 1/2 activation, EGFR (p-ERK1/2 over ERK1/2, fold over basal)",[2]; Log [Comp 21] (M) -7,108.069 percent compared to DMSO and 86.5762 percent compared to DMSO
